Assay results: the OligoGym collection
“And” between values parts separate entries of the source, which are not always exact repeats. Equal entries are not always repeated. After the bases stand the sugars from the 5' end (letter, count) and the backbone: PS all phosphorothioate, else s phosphorothioate and o phosphodiester by linkage. Methylation of C is not given here. k = constrained ethyl (cEt); d = 2'-deoxy (DNA)

Biological target: MALAT1
Settings: ASO, A431, 0.005 µM

Sequence: ATACTGAAAACTCCCC (sugars k3 d10 k3, PS)
- target mRNA inhibition: 14%

Sequence: ACTCTGATCTGCGGCC (sugars k3 d10 k3, PS)
- target mRNA inhibition: 13%

Sequence: ATTTGAACCCCGTCCT (sugars k3 d10 k3, PS)
- target mRNA inhibition: 31%

Sequence: GTTAACAATTTGCAGG (sugars k3 d10 k3, PS)
- target mRNA inhibition: 40%

Sequence: TACCTCTTAAAGCACT (sugars k3 d10 k3, PS)
- target mRNA inhibition: -17%

Sequence: TCACTACTCCAAGCAT (sugars k3 d10 k3, PS)
- target mRNA inhibition: 21%

Sequence: TTTCCTCAAGCTCCGC (sugars k3 d10 k3, PS)
- target mRNA inhibition: 54%

Sequence: CTACAACACCCGGAAA (sugars k3 d10 k3, PS)
- target mRNA inhibition: 33%

Sequence: CAACAATCACTACTCC (sugars k3 d10 k3, PS)
- target mRNA inhibition: 16%

Sequence: GGAAGATTAAAGTGTG (sugars k3 d10 k3, PS)
- target mRNA inhibition: 21%

Sequence: GCCAACTTGGAAGTTG (sugars k3 d10 k3, PS)
- target mRNA inhibition: -19%

Sequence: GTTCGCAGACAAAGTT (sugars k3 d10 k3, PS)
- target mRNA inhibition: 36%

Sequence: ACGCTAAGCAATATCT (sugars k3 d10 k3, PS)
- target mRNA inhibition: 37%

Sequence: TAACAGGCCACTGCCA (sugars k3 d10 k3, PS)
- target mRNA inhibition: 11%

Sequence: ATTCAAGCTGAACTAT (sugars k3 d10 k3, PS)
- target mRNA inhibition: 10%

Sequence: TTAATCATACTCCAGT (sugars k3 d10 k3, PS)
- target mRNA inhibition: 19%

Sequence: CGCCATGGAAAGCGAG (sugars k3 d10 k3, PS)
- target mRNA inhibition: 20%

Sequence: ATGCTACTCTTCTAAG (sugars k3 d10 k3, PS)
- target mRNA inhibition: 40%

Sequence: CAACTTGGAAGTTGAT (sugars k3 d10 k3, PS)
- target mRNA inhibition: 10%

Sequence: AAAAGTGGTTGCCCGC (sugars k3 d10 k3, PS)
- target mRNA inhibition: 28%

Sequence: AAAGAGTGTTCGCAGA (sugars k3 d10 k3, PS)
- target mRNA inhibition: 54%

Sequence: TTACTTGCCAACTTGG (sugars k3 d10 k3, PS)
- target mRNA inhibition: 70% and 68%

Sequence: ACAACTCGCATCACCG (sugars k3 d10 k3, PS)
- target mRNA inhibition: -212%

Sequence: ACTAAAGGCTTCAGTC (sugars k3 d10 k3, PS)
- target mRNA inhibition: 26%

Sequence: GAAAAAGCTTGTTCAC (sugars k3 d10 k3, PS)
- target mRNA inhibition: 28%

Sequence: CATGGATTTCAAGGTC (sugars k3 d10 k3, PS)
- target mRNA inhibition: 11%

Sequence: AGGTTACCATAAGTAA (sugars k3 d10 k3, PS)
- target mRNA inhibition: 10%

Sequence: TCAAGCACCGCTTGAG (sugars k3 d10 k3, PS)
- target mRNA inhibition: -12% and 8%

Sequence: GTCTACAAGTTACATG (sugars k3 d10 k3, PS)
- target mRNA inhibition: 13%

Sequence: GCCTACTCAAGCTCTT (sugars k3 d10 k3, PS)
- target mRNA inhibition: 20%

Sequence: GCCCCTGCGCTGGCTG (sugars k3 d10 k3, PS)
- target mRNA inhibition: 12%

Sequence: GGTTATAGCTTGACAA (sugars k3 d10 k3, PS)
- target mRNA inhibition: 78% and 95%

Sequence: CAAAAAGTAGTTCTTC (sugars k3 d10 k3, PS)
- target mRNA inhibition: -18%

Sequence: TCCTATCTTCACCACG (sugars k3 d10 k3, PS)
- target mRNA inhibition: 40%

Sequence: CACAAAACCCCCGGAA (sugars k3 d10 k3, PS)
- target mRNA inhibition: 19%

Sequence: TTCTTCGCCTTCCCGT (sugars k3 d10 k3, PS)
- target mRNA inhibition: 66% and 49%

Sequence: GGTGAATTCAACTGGA (sugars k3 d10 k3, PS)
- target mRNA inhibition: 49%

Sequence: GCCTCAATGCCTACCG (sugars k3 d10 k3, PS)
- target mRNA inhibition: -11%

Sequence: CATAAGTAAGTTCCAG (sugars k3 d10 k3, PS)
- target mRNA inhibition: 49%

Sequence: ACTGCAAGGTCTCATA (sugars k3 d10 k3, PS)
- target mRNA inhibition: -1%

Sequence: GCCTACCACTCTAAGA (sugars k3 d10 k3, PS)
- target mRNA inhibition: 29%

Sequence: CATTCCTTCGGATGCT (sugars k3 d10 k3, PS)
- target mRNA inhibition: 38%

Sequence: CCCTTCTAGCTTCAAG (sugars k3 d10 k3, PS)
- target mRNA inhibition: 38%

Sequence: AGATAGCAGCACAACT (sugars k3 d10 k3, PS)
- target mRNA inhibition: -5%

Sequence: CAACTGGGAATACTCT (sugars k3 d10 k3, PS)
- target mRNA inhibition: 20%

Sequence: ACAACAAGTAAGCCCC (sugars k3 d10 k3, PS)
- target mRNA inhibition: -7%

Sequence: ATACTTCTCCAATACT (sugars k3 d10 k3, PS)
- target mRNA inhibition: -15%

Sequence: ATCCCTTTACACCTCA (sugars k3 d10 k3, PS)
- target mRNA inhibition: 36%

Sequence: TGGTTTTAATACCCTT (sugars k3 d10 k3, PS)
- target mRNA inhibition: 11%

Sequence: ACTATCACAATTCTTA (sugars k3 d10 k3, PS)
- target mRNA inhibition: 13%

Sequence: AGTTGGTAATTACTCT (sugars k3 d10 k3, PS)
- target mRNA inhibition: 40%

Sequence: GGGAGTTACTTGCCAA (sugars k3 d10 k3, PS)
- target mRNA inhibition: 10%

Sequence: CGTTACCTTGAAACCG (sugars k3 d10 k3, PS)
- target mRNA inhibition: 36%

Sequence: AGTTTGCTCACATGCC (sugars k3 d10 k3, PS)
- target mRNA inhibition: 65% and 53%

Sequence: CTTCAACAATCACTAC (sugars k3 d10 k3, PS)
- target mRNA inhibition: 2%

Sequence: TGCAATACTGCAGATG (sugars k3 d10 k3, PS)
- target mRNA inhibition: 20%

Sequence: TTAAAGTAGACCAACT (sugars k3 d10 k3, PS)
- target mRNA inhibition: 27%

Sequence: GAAACCAGGAGTGCCA (sugars k3 d10 k3, PS)
- target mRNA inhibition: 4%

Sequence: TGAAAGAACTAGTGGT (sugars k3 d10 k3, PS)
- target mRNA inhibition: 23%

Sequence: AGCTCTATACTTTGAA (sugars k3 d10 k3, PS)
- target mRNA inhibition: 64%

Sequence: CATATTTTGCCCCCAC (sugars k3 d10 k3, PS)
- target mRNA inhibition: 15%

Sequence: GAGAAAGTGCCATGGT (sugars k3 d10 k3, PS)
- target mRNA inhibition: 26%

Sequence: TCAGGATCATTAAGCC (sugars k3 d10 k3, PS)
- target mRNA inhibition: 37%

Sequence: CTCCCCCCCGCCTCAG (sugars k3 d10 k3, PS)
- target mRNA inhibition: 12%

Sequence: CCTTTCATAGAGCCTT (sugars k3 d10 k3, PS)
- target mRNA inhibition: 69% and 90%

Sequence: GAGATACCTGTCTGAG (sugars k3 d10 k3, PS)
- target mRNA inhibition: 40%

Sequence: GTGTAGCACCTGGGTC (sugars k3 d10 k3, PS)
- target mRNA inhibition: 64% and 46%

Sequence: GCGAGTTCAAGTGGCC (sugars k3 d10 k3, PS)
- target mRNA inhibition: -5%

Sequence: AATTTTTCTACCGTTT (sugars k3 d10 k3, PS)
- target mRNA inhibition: 11%

Sequence: GCTGCAAACTTTAGAC (sugars k3 d10 k3, PS)
- target mRNA inhibition: -9%

Sequence: TAAATGACGCAATTCT (sugars k3 d10 k3, PS)
- target mRNA inhibition: 8%

Sequence: CATATTTTAAACGGGT (sugars k3 d10 k3, PS)
- target mRNA inhibition: -16%

Sequence: GCTTACAGATTTGCTG (sugars k3 d10 k3, PS)
- target mRNA inhibition: 8%

Sequence: TCCTGACAAATTATAC (sugars k3 d10 k3, PS)
- target mRNA inhibition: 28%

Sequence: GTAAACCTGTGGTGGT (sugars k3 d10 k3, PS)
- target mRNA inhibition: 56% and 60%

Sequence: CTCGATGGAAAAATTT (sugars k3 d10 k3, PS)
- target mRNA inhibition: 8%

Sequence: GGTTTTAATACCCTTC (sugars k3 d10 k3, PS)
- target mRNA inhibition: 51%

Sequence: TCCATGGTTGTCCTAC (sugars k3 d10 k3, PS)
- target mRNA inhibition: 35%

Sequence: TAATGCTAGTCCTCAG (sugars k3 d10 k3, PS)
- target mRNA inhibition: 38%

Sequence: TAATAGCAGCGGGATC (sugars k3 d10 k3, PS)
- target mRNA inhibition: 30%

Sequence: CTGAAAGAACTAGTGG (sugars k3 d10 k3, PS)
- target mRNA inhibition: 20%

Sequence: CTTCATGACCCTACTG (sugars k3 d10 k3, PS)
- target mRNA inhibition: 36%

Sequence: TACTATAGCATCTGTG (sugars k3 d10 k3, PS)
- target mRNA inhibition: -7%

Sequence: ACCAACTAAGCGAATG (sugars k3 d10 k3, PS)
- target mRNA inhibition: -12%

Sequence: ACTGGGAATACTCTTC (sugars k3 d10 k3, PS)
- target mRNA inhibition: 28%

Sequence: TCCTGAAAGTGCTCAC (sugars k3 d10 k3, PS)
- target mRNA inhibition: -7%

Sequence: AGCTTTACCTTCTAAC (sugars k3 d10 k3, PS)
- target mRNA inhibition: 47%

Sequence: ACTGCATTTACTTGCC (sugars k3 d10 k3, PS)
- target mRNA inhibition: 8%

Sequence: CACGGGCTGTCTGCTT (sugars k3 d10 k3, PS)
- target mRNA inhibition: 18%

Sequence: ACCGTAACAGGCCACT (sugars k3 d10 k3, PS)
- target mRNA inhibition: 20%

Sequence: AACCGGAGCAGGAAGA (sugars k3 d10 k3, PS)
- target mRNA inhibition: -16%

Sequence: TGATTTTAAGGTTGCA (sugars k3 d10 k3, PS)
- target mRNA inhibition: 70% and 67%

Sequence: TATAGTTTACCACCTT (sugars k3 d10 k3, PS)
- target mRNA inhibition: 14%

Sequence: GTATTATAATAGAGCT (sugars k3 d10 k3, PS)
- target mRNA inhibition: 4%

Sequence: CTTATCCCTAACATGC (sugars k3 d10 k3, PS)
- target mRNA inhibition: 41%

Sequence: ATTAATGCTAGTCCTC (sugars k3 d10 k3, PS)
- target mRNA inhibition: 36%

Sequence: ATCCCAACCGTAACAG (sugars k3 d10 k3, PS)
- target mRNA inhibition: 13%

Sequence: AGCGAGTTCAAGTGGC (sugars k3 d10 k3, PS)
- target mRNA inhibition: 27%

Sequence: TCCTCTACGCACAACG (sugars k3 d10 k3, PS)
- target mRNA inhibition: 11%

Sequence: GAGGGCCTCTATTGCC (sugars k3 d10 k3, PS)
- target mRNA inhibition: 14%

Sequence: GAAACTCCCCCATTAT (sugars k3 d10 k3, PS)
- target mRNA inhibition: 6%

Sequence: CGCCGCCTCTTAAAGC (sugars k3 d10 k3, PS)
- target mRNA inhibition: 13%

Sequence: CCGGAGCAGGAAGAAA (sugars k3 d10 k3, PS)
- target mRNA inhibition: 23%

Sequence: GACAAGCAATTAACTT (sugars k3 d10 k3, PS)
- target mRNA inhibition: 66% and 53%

Sequence: TAAACGGGTCATCAAA (sugars k3 d10 k3, PS)
- target mRNA inhibition: 34%

Sequence: AACATCTGATTCTAAC (sugars k3 d10 k3, PS)
- target mRNA inhibition: 27%

Sequence: AAGAACTAGCACCTGC (sugars k3 d10 k3, PS)
- target mRNA inhibition: 13%

Sequence: TGAAACCGATTATGGA (sugars k3 d10 k3, PS)
- target mRNA inhibition: 3%

Sequence: CAATCAAGTCAAGCTC (sugars k3 d10 k3, PS)
- target mRNA inhibition: 3%

Sequence: ACAATTACCTAAACCC (sugars k3 d10 k3, PS)
- target mRNA inhibition: 33%

Sequence: CATTCAAGCTGAACTA (sugars k3 d10 k3, PS)
- target mRNA inhibition: 39%

Sequence: CATTACAGTTCTTGAA (sugars k3 d10 k3, PS)
- target mRNA inhibition: 41%

Sequence: ACAAAACGAATTCAGG (sugars k3 d10 k3, PS)
- target mRNA inhibition: 31%

Sequence: GTCAAGACAACTGCAT (sugars k3 d10 k3, PS)
- target mRNA inhibition: 3%
